{"source": "patent US12582614B2", "about": "“Composition for preventing, alleviating or treating sarcopenia, containing D-ribo-2-hexulose as active ingredient” (KYUNGPOOK NATIONAL UNIVERSITY INDUSTRY-ACADEMIC COOPERATION …, priority 2021, dated 2026)", "format_in_all_cases": "in vivo, C57BL/6J male mice", "key": {"[1]": {"assay": "Testosterone and cortisol levels", "experimental": "(§1) For cytokine analysis, plasma cytokines (TNF-α, IL-1β, and IL-4) were measured with a Merck Millipore product (MCYTOMAG-70K, Merck, USA). Plasma (30 μL) from each mouse was analyzed in duplicate. Hormone analysis was performed using a cortisol and testosterone parameter assay kit (R&D Systems, USA)."}, "[2]": {"tested_on": "aged mice", "assay": "Fat and muscle weight"}, "[3]": {"tested_on": "gastrocnemius tissue", "assay": "H&E and Sirius red staining of gastrocnemius tissue", "experimental": "(§2) For morphological tissue observation, parts of liver and muscle tissues were fixed with a 10% formaldehyde solution for 24 hours. Thereafter, the samples were subjected to replacement with the same solution twice, dehydrated twice with ethanol, embedded in paraffin, and treated with poly-L-lysine to prepare tissue slices having a thickness of 5 μm. For morphological analysis, among the prepared tissue sections, the liver tissue was stained with H&E and MT, and the muscle tissue was stained with H&E and Sirius red, and magnified 200 times under an optical microscope. For IHC analysis, the muscle tissue was stained with IGF-1 and Myostatin, and then observed under an optical microscope."}, "[4]": {"tested_on": "myostatin", "assay": "IHC analysis of muscle tissue, myostatin", "details": "gastrocnemius muscle fibers, increase in NC vs YC", "experimental": "as §2"}, "[5]": {"tested_on": "hepatic glucose-6-phosphatase (G6P)", "assay": "Hepatic glucose-6-phosphatase measurement", "details": "DRH group vs NC group"}, "[6]": {"tested_on": "Mitochondrial respiratory chain complexes", "assay": "BN-PAGE of mitochondrial respiratory chain complexes", "details": "quadriceps mitochondria, vs NC group", "experimental": "Mitochondria were isolated from the quadriceps muscle using the Potter-Elvehjem method. To extract respiratory SCs, a sample buffer cocktail was prepared using 8 μL of digitonin (Invitrogen, USA) per 50 μg of protein, 4×5 μL of a sample buffer (Invitrogen, USA) per 50 μg of protein, and 7 μL of water per 50 μg of protein. Thereafter, the solution was mixed with mitochondria. The BN-PAGE run and transfer were performed. An Ox-Phos Rodent WB antibody cocktail (Invitrogen, USA) was reacted at room temperature for 2 hours. Then, a secondary antibody solution Alk-Phos (Invitrogen, USA) was reacted at room temperature for an hour. Immunoreactive bands were developed using chromogen (BCIP/NBT). Then, the bands in a final state were checked."}, "[7]": {"tested_on": "GSH, PON, GR", "assay": "Antioxidant enzyme activity in liver and plasma", "details": "DRH supplementation; decrease in NC vs YC", "experimental": "To analyze antioxidant activity, superoxide dismutase (SOD) activity was measured in an alkaline state by pyrogallol autoxidation using a modified method of Marklund et al. Also, catalase (CAT) activity was measured using a modified method of Aebi et al. Paraoxonase (PON) activity was measured using a modified method of Mackness et al. in order to measure an increase in absorbance of p-nitrophenol. Glutathione reductase (GR) activity was measured using a modified method of Pinto and Bartley, which was used to measure NADPH oxidation. Total glutathione (GSH) content was measured using a modified method of Ellman et al."}, "[8]": {"tested_on": "TNF-α, IL-4, IL-1β, IL-6", "assay": "Plasma inflammatory cytokine levels", "details": "between the groups (YC, NC, DRH)", "experimental": "as §1"}, "[9]": {"tested_on": "aged mice", "assay": "Whole-body tension (digital force gauge)", "details": "DRH group; decrease in NC vs YC", "experimental": "The whole-body tension was measured and evaluated using a digital force gauge (Korea, JM Instruments Corp., FGJN.FGP Series). For each mouse, the whole-body tension was measured and evaluated at intervals of 5 days. In order to evaluate the whole-body tension on week 10 of the experiment, the average value of the maximum whole-body tension was calculated as force per body weight (Ng^−1 BW)."}, "[10]": {"assay": "Liver and erythrocyte H2O2 content and TBARs", "details": "DRH supplementation; increase in NC vs YC"}, "[11]": {"tested_on": "insulin-like growth factor 1 (IGF-1)", "assay": "IHC analysis of muscle tissue, IGF-1", "details": "reduction in NC vs YC", "experimental": "as §2"}, "[12]": {"assay": "Body weight, food intake and organ weights of aged mice fed 3% D-ribo-2-hexulose diet for 12 weeks", "experimental": "Twenty-one 48-week-old C57BL/6J male mice and seven 8-week-old C57BL/6J male mice were purchased from JA BIO Inc. (Korea). The purchased animals were raised in a breeding room with a controlled temperature (20 to 23° C.) and a light/dark cycle (a 12-hour cycle), and were provided with pelletized commercial non-purified feed for the first week.\nSpecifically, a negative control group (NC, n=7, American Institute of Nutrition AIN-93G Semisynthetic diet); a D-ribo-2-hexulose-treated group (D-ribo-2-hexulose; DRH, n=7; a portion of cellulose in AIN-93G was replaced with 3% D-ribo-2-hexulose). […] The dose of D-ribo-2-hexulose was set at 3% based on previous animal studies. In the previous studies, the dose of D-ribo-2-hexulose was determined to be 3% in order to investigate a biological effect at a lower dose than the dose. During the experiment, the mice had free access to distilled water, and the food intakes and body weights of the mice were measured weekly, and blood glucose was measured once every 4 weeks. All animal experiments were approved by the Animal Research Ethics Committee of KyungPook National University (Approval Number: KNU-2020-109)."}, "[13]": {"tested_on": "aged mice", "assay": "Left hind leg thickness (digital calipers)", "details": "week 12, DRH group vs NC group", "experimental": "The thicknesses of left hind legs were measured using Bluetec digital calipers (Korea, BLUETEC, BD500) every 4 weeks during the experiment period, and the leg thickness was divided by the body weight of each mouse in order to minimize differences between individuals (mm/100 g× body weight)."}, "[14]": {"details": "DRH group, aged mice, AIN-93G + 3% DRH 12 weeks, Mean ± SD"}}, "data": [{"compound": "O=C(CO)[C@H](O)[C@H](O)[C@H](O)CO", "note": "[DRH, D-ribo-2-hexulose]", "values": [{"measurement": "cortisol level", "setting": "[1]; DRH group", "value": "decreased"}, {"measurement": "testosterone level", "setting": "[1]; DRH group vs NC group", "value": "did not show a significant difference"}, {"measurement": "ratio of the total weight of muscle tissue to the total weight of adipose tissue", "setting": "[2]; DRH group vs NC group", "value": "significantly increased"}, {"measurement": "total weight of muscle tissue", "setting": "[2]; DRH group vs NC group", "value": "no significant difference"}, {"measurement": "fat weight", "setting": "[2]; DRH supplementation", "value": "reduced"}, {"measurement": "progression of fibrosis (Sirius red staining)", "setting": "[3]; DRH group", "value": "reduced to that of the YC group"}, {"measurement": "size of muscle fibers (H&E staining)", "setting": "[3]; reduction observed in NC group", "value": "improved"}, {"measurement": "expression level of myostatin", "setting": "[4]", "value": "suppressed this increase to the level of the YC group"}, {"measurement": "hepatic glucose-6-phosphatase (G6P)", "setting": "[5]", "value": "significantly increased"}, {"measurement": "mitochondrial respiratory chain Complex IV", "setting": "[6]", "value": "significantly increased"}, {"measurement": "liver GR activity", "setting": "[7]", "value": "increased"}, {"measurement": "liver GSH-Px activity", "setting": "[7]", "value": "increased"}, {"measurement": "liver PON activity", "setting": "[7]", "value": "increased"}, {"measurement": "plasma PON activity", "setting": "[7]", "value": "increased"}, {"measurement": "level of inflammatory cytokine IL-1β", "setting": "[8]", "value": "not significantly different"}, {"measurement": "level of inflammatory cytokine IL-4", "setting": "[8]", "value": "not significantly different"}, {"measurement": "level of inflammatory cytokine IL-6", "setting": "[8]", "value": "not significantly different"}, {"measurement": "level of inflammatory cytokine TNF-α", "setting": "[8]", "value": "not significantly different"}, {"measurement": "whole-body tension", "setting": "[9]", "value": "dramatically compensated for the decrease"}, {"measurement": "liver H2O2 content", "setting": "[10]", "value": "significantly reduced"}, {"measurement": "expression level of IGF-1", "setting": "[11]", "value": "improved this reduction"}, {"measurement": "final body weight", "setting": "[12]; DRH group vs NC group", "value": "significantly lower"}, {"measurement": "kidney weight", "setting": "[12]; DRH group vs NC group", "value": "increased"}, {"measurement": "liver weight", "setting": "[12]; DRH group vs NC group", "value": "decreased"}, {"measurement": "spleen weight", "setting": "[12]; DRH group vs NC group", "value": "no significant difference"}, {"measurement": "weight gain", "setting": "[12]; DRH group vs NC group", "value": "significantly lower"}, {"measurement": "Final BW", "setting": "[12]; [14]", "value": "37.59 ± 0.56^$$ g"}, {"measurement": "Total BWG", "setting": "[12]; [14]", "value": "1.36 ± 0.20^$$$ g"}, {"measurement": "kidney weight", "setting": "[12]; [14]", "value": "1.10 ± 0.02^$$ g per 100 g BW"}, {"measurement": "liver weight", "setting": "[12]; [14]", "value": "3.71 ± 0.07^$ g per 100 g BW"}, {"measurement": "spleen weight", "setting": "[12]; [14]", "value": "0.20 ± 0.02 ^ g per 100 g BW"}, {"measurement": "thicknesses of the left hind legs", "setting": "[13]", "value": "significantly increased"}]}]}
